From patent US20250340574A1, “MODULATORS OF CYSTIC FIBROSIS TRANSMEMBRANE CONDUCTANCE REGULATOR” (Vertex Pharmaceuticals Incorporated, priority 2022, published 2025)
Read-outs that look alike come from different tables or passages of the source.

How the values were obtained:
[1] = amide bond, 13-membered ring, CDMT/NMM, DMF
[2] = molecular target: T1, CFTR (F508del/MF-HBE cells) (Homo sapiens, UniProt P13569, DEL508-508); assay: Ussing chamber assay of CFTR-mediated short-circuit currents, Assay A (0.1 μM to 25 μM, 6 concentrations); assay type: cell-based; conditions: with 33 nM potentiator and 18 μM Tezacaftor, 20% human serum; for Emax: 18-24 hours, read-out: A Max activity (%)
T1 construct: human bronchial epithelial (HBE) cells derived from CF subjects heterozygous for F508del and a minimal function CFTR mutation (F508del/MF-HBE); endogenous in cells; host or cells: Primary human bronchial epithelial cells from CF subjects (F508del/MF genotype), differentiated at an air-liquid interface
T1 sequence (P13569 with tags, fused parts or gaps DEL508-508): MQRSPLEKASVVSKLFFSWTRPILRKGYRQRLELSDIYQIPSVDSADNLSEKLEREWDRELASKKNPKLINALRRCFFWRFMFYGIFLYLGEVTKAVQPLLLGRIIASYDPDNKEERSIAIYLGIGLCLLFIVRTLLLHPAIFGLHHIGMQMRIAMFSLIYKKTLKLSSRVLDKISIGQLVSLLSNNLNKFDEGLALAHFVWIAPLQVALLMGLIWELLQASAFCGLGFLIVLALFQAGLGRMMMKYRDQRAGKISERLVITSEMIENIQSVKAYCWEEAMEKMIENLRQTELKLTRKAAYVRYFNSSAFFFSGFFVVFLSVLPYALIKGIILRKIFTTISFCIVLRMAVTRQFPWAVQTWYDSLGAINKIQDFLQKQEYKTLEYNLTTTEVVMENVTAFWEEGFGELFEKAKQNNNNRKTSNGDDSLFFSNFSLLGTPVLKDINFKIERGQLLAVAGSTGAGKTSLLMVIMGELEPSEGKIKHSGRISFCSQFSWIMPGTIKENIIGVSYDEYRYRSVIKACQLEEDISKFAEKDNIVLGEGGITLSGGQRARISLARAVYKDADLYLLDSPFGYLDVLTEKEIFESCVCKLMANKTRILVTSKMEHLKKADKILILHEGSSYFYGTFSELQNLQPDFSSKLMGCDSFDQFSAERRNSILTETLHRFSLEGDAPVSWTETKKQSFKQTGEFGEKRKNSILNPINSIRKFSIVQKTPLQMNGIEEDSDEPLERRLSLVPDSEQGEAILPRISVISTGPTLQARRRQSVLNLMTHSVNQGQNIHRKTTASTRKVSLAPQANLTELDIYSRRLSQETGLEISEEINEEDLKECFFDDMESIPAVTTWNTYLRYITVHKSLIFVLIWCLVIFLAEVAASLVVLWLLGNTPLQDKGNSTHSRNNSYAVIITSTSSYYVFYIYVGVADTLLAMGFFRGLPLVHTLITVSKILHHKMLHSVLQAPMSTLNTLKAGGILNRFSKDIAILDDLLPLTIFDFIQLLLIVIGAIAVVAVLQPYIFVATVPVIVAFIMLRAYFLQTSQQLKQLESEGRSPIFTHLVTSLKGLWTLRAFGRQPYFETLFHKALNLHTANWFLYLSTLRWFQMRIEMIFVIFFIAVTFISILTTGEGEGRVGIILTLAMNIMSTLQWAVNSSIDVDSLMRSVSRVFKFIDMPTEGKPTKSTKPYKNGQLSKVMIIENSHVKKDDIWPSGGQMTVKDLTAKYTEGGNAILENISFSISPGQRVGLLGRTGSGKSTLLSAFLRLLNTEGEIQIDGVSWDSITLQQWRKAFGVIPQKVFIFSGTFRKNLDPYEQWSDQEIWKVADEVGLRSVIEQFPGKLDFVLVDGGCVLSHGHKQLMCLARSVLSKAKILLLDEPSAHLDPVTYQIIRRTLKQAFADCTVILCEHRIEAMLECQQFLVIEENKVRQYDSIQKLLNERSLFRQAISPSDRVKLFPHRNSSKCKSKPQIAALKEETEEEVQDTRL
Summary of the method: (§1)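 F508del/MF-HBE cells grown at air-liquid interface were incubated 18-24 h at 37 °C in 20% human serum with correctors plus 18 μM tezacaftor and a fixed partner compound (33 nM for concentration series, 44 nM at 1 μM). ISC was read at 0 mV after 20 μM forskolin, minus the post-inhibitor current.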

[3] = molecular target: T1, CFTR (F508del/MF-HBE cells); assay: Ussing chamber assay of CFTR-mediated short-circuit currents, Assay C (0.026 μM to 25 μM, 6 concentrations); assay type: cell-based; conditions: with 33 nM potentiator and 18 μM Tezacaftor, 20% human serum; for Emax: read-out: C Max activity (%)
Summary of the method: as §1

[4] = molecular target: T1, CFTR (F508del/MF-HBE cells); assay: Ussing chamber assay of CFTR-mediated short-circuit currents, Assay D (single concentration of 1 μM); assay type: cell-based; conditions: with 44 nM potentiator and 18 μM Tezacaftor, 20% human serum; for D activity at 1 μM (%): 18-24 hours
Summary of the method: as §1

Row | SMILES | EC50 [3] | D activity at 1 μM (%) [4] | Emax [3] | D act. at 1 μM (%) [4] | also measured
1 | Cc1cccc(C)c1-c1cc2nc(n1)NS(=O)(=O)c1cccc(c1)C(=O)N(Cc1cnc3oc(C(C)C)cc3n1)[C@H](CCC1(C)CCC1)CO2 [Compound I-13, (11R)-6-(2,6-dimethylphenyl)-12-[(6-isopropylfuro[2,3-b]pyrazin-2-yl)methyl]-11-[2-(1-methylcyclobutyl)ethyl]-2,2-dioxo-9-oxa-2λ^6-thia-3,5,12,19-tetrazatricyclo[12.3.1.14,8]nonadeca-1(18),4(19),5,7,14,16-hexaen-13-one] | – | – | – | – | ring closure, yield after HPLC ([1]; from Cc1cccc(C)c1-c1cc(OC[C@@H](CCC2(C)CCC2)NCc2cnc3oc(C(C)C)cc3n2)nc(NS(=O)(=O)c2cccc(C(=O)O)c2)n1, 13.5 mM, 16.5 h): 37%; Emax [2]: > 60%; EC50 [2]: < 1000 nM
2 | Cc1cccc(C)c1-c1cc2nc(n1)NS(=O)(=O)c1cccc(c1)C(=O)N(Cc1cnc3cc(C(C)(C)C)n(C)c3n1)[C@H](CC1(C)CC1)CO2 [Compound I-187, (11R)-12-[(6-tert-Butyl-5-methyl-pyrrolo[2,3-b]pyrazin-3-yl)methyl]-6-(2,6-dimethylphenyl)-11-[(1-methylcyclopropyl)methyl]-2,2-dioxo-9-oxa-2λ^6-thia-3,5,12,19-tetrazatricyclo[12.3.1.14,8]nonadeca-1(18),4(19),5,7,14,16-hexaen-13-one] | < 1000 nM | +++ (+++ is >60%) | – | – | Emax ([3]; 18-24 hours): > 60%; ring closure, yield after HPLC ([1]; from Cc1cccc(C)c1-c1cc(OC[C@@H](CC2(C)CC2)NCc2cnc3cc(C(C)(C)C)n(C)c3n2)nc(NS(=O)(=O)c2cccc(C(=O)O)c2)n1, 22.5 mM, 4.0 h): 41%
3 | Cc1cccc(C)c1-c1cc2nc(n1)NS(=O)(=O)c1cccc(c1)C(=O)N(Cc1ncc3cc(C(C)(C)C)n(C)c3n1)[C@H](CC13CC(C1)C3)CO2 [IV-35, (11R)-11-(1-bicyclo[1.1.1]pentanylmethyl)-12-[(6-tert-butyl-7-methyl-pyrrolo[2,3-d]pyrimidin-2-yl)methyl]-6-(2,6-dimethylphenyl)-2,2-dioxo-9-oxa-2λ^6-thia-3,5,12,19-tetrazatricyclo[12.3.1.14,8]nonadeca-1(18),4(19),5,7,14,16-hexaen-13-one] | < 1000 nM | – | > 60% | +++ (+++ is >60%) | ring closure, yield after HPLC ([1]; from Cc1cccc(C)c1-c1cc(OC[C@@H](CC23CC(C2)C3)NCc2ncc3cc(C(C)(C)C)n(C)c3n2)nc(NS(=O)(=O)c2cccc(C(=O)O)c2)n1, 9.95 mM, 25.0 °C, 16.5 h): 27%
4 | Cc1cccc(COC(C)C)c1-c1nc2nc(c1C)OC[C@@H](CC(C)(C)C)N(Cc1cnc3oc(C(C)(C)C)cc3n1)C(=O)c1cccc(c1)S(=O)(=O)N2 (single isomer, unassigned) [IV-40] | < 1000 nM | – | > 60% | +++ (+++ is >60%) | ring closure, yield after HPLC ([1]; from Cc1cccc(COC(C)C)c1-c1nc(NS(=O)(=O)c2cccc(C(=O)O)c2)nc(OC[C@@H](CC(C)(C)C)NCc2cnc3oc(C(C)(C)C)cc3n2)c1C, 15.1 mM, 25.0 °C, 60.0 h): 23%
5 | Cc1cccc(C)c1-c1cc2nc(n1)NS(=O)(=O)c1cccc(c1)C(=O)N(Cc1cnc3oc(C(C)C)c(C)c3n1)[C@H](CC13CC(C1)C3)CO2 [Compound I-62, (11R)-11-(1-bicyclo[1.1.1]pentanylmethyl)-6-(2,6-dimethylphenyl)-12-[(6-isopropyl-7-methyl-furo[2,3-b]pyrazin-2-yl)methyl]-2,2-dioxo-9-oxa-2λ^6-thia-3,5,12,19-tetrazatricyclo[12.3.1.14,8]nonadeca-1(18),4(19),5,7,14,16-hexaen-13-one] | – | – | – | – | ring closure, yield after HPLC ([1]; from Cc1cccc(C)c1-c1cc(OC[C@@H](CC23CC(C2)C3)NCc2cnc3oc(C(C)C)c(C)c3n2)nc(NS(=O)(=O)c2cccc(C(=O)O)c2)n1, 39.5 mM, 14.0 h): 70%; Emax [2]: > 60%; EC50 [2]: < 1000 nM
6 | CCc1c2nc(nc1-c1c(C)cccc1C)NS(=O)(=O)c1cccc(c1)C(=O)N(Cc1cnc3cc(C(C)(C)C)n(C)c3n1)[C@H](COC(C)C)CO2 [IV-4, (11R)-12-[(6-tert-butyl-5-methyl-pyrrolo[2,3-b]pyrazin-3-yl)methyl]-6-(2,6-dimethylphenyl)-7-ethyl-11-(isopropoxymethyl)-2,2-dioxo-9-oxa-2λ^6-thia-3,5,12,19-tetrazatricyclo[12.3.1.14,8]nonadeca-1(17),4(19),5,7,14(18),15-hexaen-13-one] | < 1000 nM | – | > 60% | +++ (+++ is >60%) | ring closure, yield after HPLC ([1]; from CCc1c(OC[C@@H](COC(C)C)NCc2cnc3cc(C(C)(C)C)n(C)c3n2)nc(NS(=O)(=O)c2cccc(C(=O)O)c2)nc1-c1c(C)cccc1C, 10.0 mM, 25.0 °C, 3.5 h): 20%
7 | CCC(CC)[C@@H]1COc2cc(-c3c(C)cccc3C)nc(n2)NS(=O)(=O)c2cccc(c2)C(=O)N1Cc1cnc2oc(C(C)(C)C)cc2n1 [IV-48, (11R)-12-[(6-tert-butylfuro[2,3-b]pyrazin-2-yl)methyl]-6-(2,6-dimethylphenyl)-11-(1-ethylpropyl)-2,2-dioxo-9-oxa-2λ^6-thia-3,5,12,19-tetrazatricyclo[12.3.1.14,8]nonadeca-1(18),4,6,8(19),14,16-hexaen-13-one] | 1000 to 3000 nM | – | > 60% | +++ (+++ is >60%) | ring closure, yield after HPLC ([1]; from CCC(CC)[C@H](COc1cc(-c2c(C)cccc2C)nc(NS(=O)(=O)c2cccc(C(=O)O)c2)n1)NCc1cnc2oc(C(C)(C)C)cc2n1, 11.1 mM, 25.0 °C, 18.0 h): 52%
8 | Cc1cccc(C)c1-c1cc2nc(n1)NS(=O)(=O)c1cccc(c1)C(=O)N(Cc1cnc3cc(C4(C)CC4)n(C)c3n1)[C@H](CC13CC(C1)C3)CO2 [Compound I-227, (11R)-11-(1-Bicyclo[1.1.1]pentanylmethyl)-6-(2,6-dimethylphenyl)-12-[[5-methyl-6-(1-methylcyclopropyl)pyrrolo[2,3-b]pyrazin-3-yl]methyl]-2,2-dioxo-9-oxa-2λ^6-thia-3,5,12,19-tetrazatricyclo[12.3.1.14,8]nonadeca-1(18),4(19),5,7,14,16-hexaen-13-one] | < 1000 nM | +++ (+++ is >60%) | – | – | Emax ([3]; 18-24 hours): > 60%; ring closure, yield after HPLC ([1]; from Cc1cccc(C)c1-c1cc(OC[C@@H](CC23CC(C2)C3)NCc2cnc3cc(C4(C)CC4)n(C)c3n2)nc(NS(=O)(=O)c2cccc(C(=O)O)c2)n1, 25.0 °C): 66%
9 | Cc1cccc(C)c1-c1cc2nc(n1)NS(=O)(=O)c1cccc(c1)C(=O)N(Cc1cnc3oc(C(C)C)c(NC(=O)OC(C)(C)C)c3n1)[C@H](CC1(C)CC1)CO2 [Compound I-210, tert-Butyl N-[2-[[(11R)-6-(2,6-dimethylphenyl)-11-[(1-methylcyclopropyl)methyl]-2,2,13-trioxo-9-oxa-2λ^6-thia-3,5,12,19-tetrazatricyclo[12.3.1.14,8]nonadeca-1(18),4(19),5,7,14,16-hexaen-12-yl]methyl]-6-isopropyl-furo[2,3-b]pyrazin-7-yl]carbamate] | – | +++ (+++ is >60%) | – | – | ring closure, yield after HPLC ([1]; from Cc1cccc(C)c1-c1cc(OC[C@@H](CC2(C)CC2)NCc2cnc3oc(C(C)C)c(NC(=O)OC(C)(C)C)c3n2)nc(NS(=O)(=O)c2cccc(C(=O)O)c2)n1, 13.4 mM, 5.5 h): 55%
10 | COc1c2nc(nc1-c1c(C)cccc1C)NS(=O)(=O)c1cccc(c1)C(=O)N(Cc1cnc3oc(C(C)C)cc3n1)[C@H](CC(C)(C)C)CC2 [Compound I-157, (11S)-6-(2,6-Dimethylphenyl)-11-(2,2-dimethylpropyl)-12-[(6-isopropylfuro[2,3-b]pyrazin-2-yl)methyl]-7-methoxy-2,2-dioxo-2λ^6-thia-3,5,12,19-tetrazatricyclo[12.3.1.14,8]nonadeca-1(18),4(19),5,7,14,16-hexaen-13-one] | – | +++ (+++ is >60%) | – | – | ring closure, yield after HPLC ([1]; from COc1c(CC[C@@H](CC(C)(C)C)NCc2cnc3oc(C(C)C)cc3n2)nc(NS(=O)(=O)c2cccc(C(=O)O)c2)nc1-c1c(C)cccc1C, 11.0 mM, 3.5 h): 62%
11 | Cc1cccc(C)c1-c1cc2nc(n1)NS(=O)(=O)c1cccc(c1)C(=O)N(Cc1cc3ccn(C(C)C)c3cn1)[C@H](CC1(C)CC1)CO2 [III-25, (11R)-6-(2,6-Dimethylphenyl)-12-[(I-isopropylpyrrolo[2,3-c]pyridin-5-yl)methyl]-11-[(I-methylcyclopropyl)methyl]-2,2-dioxo-9-oxa-2λ^6-thia-3,5,12,19-tetrazatricyclo[12.3.1.14,8]nonadeca-1(18),4(19),5,7,14,16-hexaen-13-one] | – | +++ (+++ is >60%) | – | – | ring closure, yield after HPLC ([1]; from Cc1cccc(C)c1-c1cc(OC[C@@H](CC2(C)CC2)NCc2cc3ccn(C(C)C)c3cn2)nc(NS(=O)(=O)c2cccc(C(=O)O)c2)n1, 9.73 mM, 16.33 h): 50%
